Activity calls are given as the source filed them. No cut-off for these calls is given here.
Assays:
NALM-6 [1] = assay: Antiproliferative activity against human NALM-6 cells assessed as reduction in cell viability incubated for 48 hrs by CCK8 assay; type: functional, cell-based; settings: NALM-6, 48 h
Jurkat = assay: Antiproliferative activity against human Jurkat cells assessed as reduction in cell viability incubated for 48 hrs by CCK8 assay; type: functional, cell-based
HL-60 = assay: Antiproliferative activity against human HL-60 cells assessed as reduction in cell viability incubated for 48 hrs by CCK8 assay; type: functional, cell-based; settings: HL-60, 48 h
K562 = assay: Antiproliferative activity against human K562 cells assessed as reduction in cell viability incubated for 48 hrs by CCK8 assay; type: functional, cell-based; settings: K562, 48 h
HUVEC [2] = assay: Cytotoxicity against human HUVEC cells assessed as reduction in cell viability up to 50 uM by CCK8 assay; type: toxicity, cell-based
NALM-6 [3] = assay: Potency index, ratio of celecoxib IC50 to test compound IC50 for antiproliferative activity against human NALM-6 cells assessed as reduction in cell viability incubated for 48 hrs by CCK8 assay; type: functional
NALM-6 [4] = assay: Antiproliferative activity against human NALM-6 cells assessed as reduction in cell viability incubated for 24 hrs by CCK8 assay; type: functional, cell-based
L02 = assay: Cytotoxicity against human L02 cells assessed as reduction in cell viability by CCK8 assay; type: toxicity, cell-based
MCF-10A = assay: Cytotoxicity against human MCF-10A cells assessed as reduction in cell viability by CCK8 assay; type: toxicity, cell-based
Histone deacetylase = assay: Inhibition of HDAC in human NALM-6 nuclear extract incubated for 48 hrs by fluorometric analysis; type: subcellular, Nucleus
NALM-6 [5] = assay: Downregulation of HDAC2 expression in human NALM-6 cells incubated for 48 hrs by western blot analysis; type: functional, cell-based; settings: dose 10-30 µM, DDE = dose-dependent effect
NALM-6 [6] = assay: Induction of cell cycle arrest in human NALM-6 cells assessed as accumulation of cells at G2 phase at 30 uM incubated for 48 hrs by PI/RNase staining based flow cytometry; type: functional
NALM-6 [7] = assay: Induction of cell cycle arrest in human NALM-6 cells assessed as reduction in proportion of cells at S phase at 30 uM incubated for 48 hrs by PI/RNase staining based flow cytometry; type: functional
NALM-6 [8] = assay: Induction of apoptosis in human NALM-6 cells assessed as viable cells at 10 uM incubated for 48 hrs by AnnexinV-FITC/PI staining based flow cytometry (reference value: 97.98%); type: functional; settings: read-out: Activity
NALM-6 [9] = assay: Induction of apoptosis in human NALM-6 cells assessed as early apoptotic cells at 10 uM incubated for 48 hrs by AnnexinV-FITC/PI staining based flow cytometry (reference value: 1.09%); type: functional
NALM-6 [10] = assay: Induction of apoptosis in human NALM-6 cells assessed as late apoptotic cells at 10 uM incubated for 48 hrs by AnnexinV-FITC/PI staining based flow cytometry (reference value: 0.92%); type: functional
NALM-6 [11] = assay: Induction of apoptosis in human NALM-6 cells assessed as necrotic cells at 10 uM incubated for 48 hrs by AnnexinV-FITC/PI staining based flow cytometry (reference value: 0.01%); type: functional
NALM-6 [12] = assay: Induction of apoptosis in human NALM-6 cells assessed as viable cells at 30 uM incubated for 48 hrs by AnnexinV-FITC/PI staining based flow cytometry (reference value: 97.98%); type: functional; settings: read-out: Activity
NALM-6 [13] = assay: Induction of apoptosis in human NALM-6 cells assessed as early apoptotic cells at 30 uM incubated for 48 hrs by AnnexinV-FITC/PI staining based flow cytometry (reference value: 1.09%); type: functional
NALM-6 [14] = assay: Induction of apoptosis in human NALM-6 cells assessed as late apoptotic cells at 30 uM incubated for 48 hrs by AnnexinV-FITC/PI staining based flow cytometry (reference value: 0.92%); type: functional
NALM-6 [15] = assay: Induction of apoptosis in human NALM-6 cells assessed as necrotic cells at 30 uM incubated for 48 hrs by AnnexinV-FITC/PI staining based flow cytometry (reference value: 0.01%); type: functional
NALM-6 [16] = assay: Induction of apoptosis in human NALM-6 cells assessed as increase in cleaved PARP expression at 10 to 30 uM incubated for 48 hrs by western blot analysis; type: functional, cell-based; settings: dose 10-30 µM
HUVEC [17] = assay: Cytotoxicity against human HUVEC cells assessed as reduction in cell viability by CCK8 assay; type: toxicity, cell-based

Structure (SMILES)	IC50 (Jurkat)	IC50 (HL-60)	IC50 (K562)	IC50 (NALM-6 [1])	further results
Cc1ccc(-c2cc(C(F)(F)F)nn2-c2ccc(S(=O)(=O)NC(=O)CCCC[Se]C#N)cc2)cc1	> 100 µM	59.8 µM	> 100 µM	> 100 µM	
O=C(CCCCCCC(=O)Nc1ccccc1)NO [VORINOSTAT]					Activity (L02): Toxic; Activity (MCF-10A): Toxic; Activity (HUVEC [17]): Toxic
Cc1ccc(-c2cc(C(F)(F)F)nn2-c2ccc(S(=O)(=O)NC(=O)CCC[Se]C#N)cc2)cc1	> 100 µM	> 100 µM	> 100 µM	> 100 µM	
Cc1ccc(-c2cc(C(F)(F)F)nn2-c2ccc(S(=O)(=O)NC(=O)CC[Se]C#N)cc2)cc1	> 100 µM	62.5 µM	> 100 µM	> 100 µM	

Further lines, with some results ahead:

IC50 (Jurkat)	IC50 (HL-60)	IC50 (K562)	Structure (SMILES)	IC50 (NALM-6 [1])	further results
33.3 µM	30 µM	44.1 µM	Cc1ccc(-c2cc(C(F)(F)F)nn2-c2ccc(S(=O)(=O)NC(=O)C[Se]C#N)cc2)cc1	34.9 µM	
32.1 µM	44.7 µM	57.8 µM	Cc1ccc(-c2cc(C(F)(F)F)nn2-c2ccc(S(N)(=O)=O)cc2)cc1 [CELECOXIB]	28.6 µM	Activity (HUVEC [2]): Non-Toxic
12.6 µM	26.8 µM	11.7 µM	Cc1ccc(-c2cc(C(F)(F)F)nn2-c2ccc(S(=O)(=O)NC(=O)CCCCC[Se]C#N)cc2)cc1	9.95 µM	Ratio IC50 (NALM-6 [3]): 2.8; Activity (NALM-6 [4]): Active; Activity (L02): Non-Toxic; Activity (MCF-10A): Non-Toxic; IC50 (Histone deacetylase): 11.75 µM; inhibition (NALM-6 [5]): Dde; Activity (NALM-6 [6]): Active; Activity (NALM-6 [7]): Active; viability at 10 µM (NALM-6 [8]): 97.7%; Activity (NALM-6 [9]): 1.53%; Activity (NALM-6 [10]): 0.72%; Activity (NALM-6 [11]): 0.09%; viability at 30 µM (NALM-6 [12]): 85.8%; Activity (NALM-6 [13]): 9.51%; Activity (NALM-6 [14]): 4.17%; Activity (NALM-6 [15]): 0.49%; Activity (NALM-6 [16]): Active; Activity (HUVEC [17]): Non-Toxic

Source: ChEMBL document CHEMBL5150047, “Novel bioactive hybrid Celecoxib-HDAC Inhibitor, induces apoptosis in human acute lymphoblastic leukemia cells” (Bioorg Med Chem, 2022)
